Inconclusive results are not listed. Calls of active or inactive are those of the source.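 How the source made its calls: active means EC50 at most a set number of log units above the top tested dose; inconclusive means flat curve fit with activity between 30% and 70%, or poor fit; inactive means EC50 further above the top dose than that.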
System: NIH3T3-HGL HSF1 luciferase reporter, MG132, 8 h
Assay: enhancement of HSF1-driven luciferase signal – cell-based, NIH3T3, luminescence, dose retest, confirmation (AID 435004)

`O=C1CC(c2ccccc2Cl)CC(O)=C1C=Nc1ccccc1` (stereo not drawn) gave an EC50 of 4.71 µM.

In the case of `C#CCOCCOCCOCCNc1nc(N2CCN(C(=O)[C@H](Cc3cc4ccccc4[nH]3)n3cc(C(N)CC(C)C)nn3)CC2)nc(N2CCN(C(=O)[C@H](CCC(=O)O)n3cc(C(N)[C@H](C)CC)nn3)CC2)n1` (stereo partly drawn), the EC50 is reported as > 26 µM (inactive).

With `CC(C)CCN=CC1=C(O)CC(c2ccccc2)CC1=O` (stereo not drawn) the EC50 was > 26 µM (inactive).
